Assay results published in patent US20230159509A1 (Amathus Therapeutics, Inc., priority 2020, published 2023).

What was measured:
[1] = target: T1, TRAP1 enzyme (Homo sapiens, UniProt Q12931); experiment: ADP Glo assay of TRAP1 ATPase activity; format: biochemical
T1 construct: 150 nM Trap1 enzyme was incubated with various concentrations of the test compound
T1 sequence (Q12931 60-704): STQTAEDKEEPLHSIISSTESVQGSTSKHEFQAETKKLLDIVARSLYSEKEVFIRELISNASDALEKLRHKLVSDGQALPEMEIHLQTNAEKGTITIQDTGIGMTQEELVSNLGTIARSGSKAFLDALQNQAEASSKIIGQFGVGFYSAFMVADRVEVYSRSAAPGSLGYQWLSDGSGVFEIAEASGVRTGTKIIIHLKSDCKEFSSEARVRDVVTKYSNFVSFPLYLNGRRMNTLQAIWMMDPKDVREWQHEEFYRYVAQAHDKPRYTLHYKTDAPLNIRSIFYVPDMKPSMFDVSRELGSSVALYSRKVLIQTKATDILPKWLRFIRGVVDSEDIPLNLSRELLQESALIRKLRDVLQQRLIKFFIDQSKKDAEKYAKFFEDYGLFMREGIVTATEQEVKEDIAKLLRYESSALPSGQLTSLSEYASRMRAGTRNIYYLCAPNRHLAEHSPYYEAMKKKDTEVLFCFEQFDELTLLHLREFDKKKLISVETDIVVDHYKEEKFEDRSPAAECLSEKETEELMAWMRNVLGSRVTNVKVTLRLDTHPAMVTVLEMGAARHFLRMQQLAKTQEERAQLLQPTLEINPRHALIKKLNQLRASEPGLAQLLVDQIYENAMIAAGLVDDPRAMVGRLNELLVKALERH
Outline: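 Compound (0.79–100 μM) was preincubated 30 min at 37° C with 150 nM TRAP1 in 25 mM Pipes pH 7.5, 40 mM KCl, 0.05 mM MgCl2. Reaction started with 20 μM ATP, 60 min at 37° C. ADP measured by luminescence against a standard curve; activation fitted sigmoidally for EC50 and Emax.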

[2] = tested on: human α-synuclein-WT; experiment: α-synuclein expression and aggregation assay in differentiated neuronal ReNcell VM cells; format: cell-based
Procedure: Assay measuring α-synuclein expression and aggregation in differentiated neuronal ReNcell VM cells transduced with human α-synuclein-WT were used to assess the α-synuclein modulation characteristics of compounds. To this purpose, ReNcell VM cells in growth medium (containing EGF and bFGF) were seeded in 96-well laminin-coated plates.
Three (3) days post-seeding, on DO, the cells were refreshed with differentiation medium (devoid of EGF and bFGF, supplemented with cAMP and GDNF) and transduced with α-synuclein-encoding adenoviruses. On D1, after overnight transduction, the adenoviral medium was removed and test compound CRCs diluted in differentiation medium were added to the cells in biological duplicates (i.e. in wells located on separate assay plates processed on the same day). The assay includes a compound refreshment on D4. On each plate tested, up to six (6) vehicle control samples (0.1% DMSO) and up to six (6) positive control samples (10 μM KU 0063794) were included. Furthermore, each assay run includes an 8-point CRC of the reference compound KU 0063794. After six (6) days of compound treatment (on D7), the cells were fixed using 3.7% formaldehyde.
Assay readouts were aggregate-selective (MJFR-14) and α/β-synuclein (Syn205) immunoreactivity, quantified using high-content analysis with algorithms for Density×Area (D×A). Co-staining of cell nuclei with DAPI is performed to quantify cell number as a measure of potential toxicity. Synuclein immunoreactivity (D×A) was normalized for the number of nuclei (nuc) per imaged well (D×A/nuc). Compound performance was evaluated by efficacy (percentage inhibition (PIN) relative to positive control) and potency (pIC50, when calculable) determination.
Assay quality was confirmed using the following pre-set criteria: Toxicity: ≤25% nuclei loss compared to average DMSO control, Coefficient of variation (CV): ≤20% CV for DMSO control, Assay window: ≥2.0 for Syn205, and Assay window: ≥1.5 for MJF-14.

[3] = tested on: α-synuclein; experiment: α-synuclein aggregation in human embryonic stem cells overexpressing α-synuclein with an AAV vector; format: cell-based; conditions: FIG. 9

## COc1ncc(NC(=O)c2csc(-c3ccccc3)n2)cc1S(=O)(=O)Nc1c(C)cccc1C [compound 1178]
[1]; concentration for half maximal activation, read-out: ADP GLO DRC: GeoMean EC50
  EC50: < 10 µM
[1]; maximal percent activation, read-out: ADP GLO DRC: Mean Emax
  Emax: 200 to 300%
[2]; MJFR-14
  MJFR-14 Max efficacy (PE): 36.2
[2]; MJFR-14, percentage inhibition relative to positive control (10 μM KU 0063794)
  MJFR-14 Max efficacy (PIN): 52.1
[2]; Syn205
  Syn205 Max efficacy (PE): 44.9
[2]; Syn205, percentage inhibition relative to positive control (10 μM KU 0063794)
  Syn205 Max efficacy (PIN): 64.7
[2]; aggregate-selective (MJFR-14) immunoreactivity, D×A/nuc
  MJFR-14 Potency (pIC50): 5.6
[2]; α/β-synuclein (Syn205) immunoreactivity, D×A/nuc
  Syn205 Potency (pIC50): 5.6
[3]
  α-synuclein aggregation: reduction in α-synuclein aggregation
